# Data reported in patent publication US8828988B2 (Tetraphase Pharmaceuticals, Inc., priority 2009, dated 2014).
# Like-named read-outs stand apart in the source and are kept apart here.
# Experiments:
# [1] = test system: Enterococcus faecalis EF159, tetracycline-resistant, tet(M); experiment: MIC assay, EF159; format: cell-based; settings: Table 8, read-out: MIC E. faecalis tetM
# [2] = test system: E. coli S30 extract system, coupled in vitro transcription/translation, firefly luciferase readout; experiment: In vitro transcription/translation (TnT) assay; format: biochemical
# [3] = test system: E. coli DH10B(pBAD-tetM), expressing tet(M); experiment: MIC against recombinant E. coli expressing tet(M); format: cell-based; settings: for MIC: Escherichia coli
# Source text: (§1) Constructs were transformed into E. coli DH10B for expression. Recombinant strains were pre-induced under optimized conditions with L-arabinose prior to use as inocula in CLSI standardized MIC assays.
# [4] = test system: Staphylococcus aureus SA158, tetracycline-resistant tet(K); experiment: MIC assay, SA158; format: cell-based; settings: Table 8, read-out: MIC S. aureus tetK
# [5] = test system: Streptococcus pneumoniae SP106, ATCC 49619; experiment: MIC assay, SP106; format: cell-based; settings: ATCC49619, Table 8, read-out: MIC S. pneumoniae ATCC 49619
# [6] = test system: tet(M) strains of S. pneumoniae; experiment: MIC, CLSI methodology, recent clinical isolates (Example 21); format: cell-based; settings: Streptococcus pneumoniae, read-out: MIC against tet(M) strains of S. pneumoniae
# Description: (§2) The assays were run as follows.
# (§3) The antibacterial activities of Compounds MIC values were determined according to CLSI methodology. Recent clinical isolates were obtained from Eurofins-Medinet. Antibiotics were obtained from standard commercial sources.
# [7] = test system: tet(M) strains of S. aureus; experiment: as above; format: cell-based; settings: Staphylococcus aureus, read-out: MIC against tet(M) strains of S. aureus
# Description: as §2, §3
# [8] = test system: tet(K) strains of S. aureus; experiment: as above; format: cell-based; settings: Staphylococcus aureus, read-out: MIC against tet(K) strains of S. aureus
# Description: as §2, §3
# [9] = test system: tet(M) and tet(S) strains of E. faecalis; experiment: as above; format: cell-based; settings: Enterococcus faecalis, read-out: MIC against tet(M) and tet(S) strains of E. faecalis
# Description: as §2, §3
# [10] = test system: Enterococcus faecalis EF103, ATCC 29212; experiment: MIC assay, EF103; format: cell-based; settings: Enterococcus faecalis, ATCC29212; Table 8; read-out: MIC E. faecalis ATCC 29212
# [11] = test system: Streptococcus pneumoniae SP160, tetracycline-resistant, tet(M); experiment: MIC assay, SP160; format: cell-based; settings: Table 8, read-out: MIC S. pneumoniae tetM
# [12] = test system: Staphylococcus aureus SA101, ATCC 29213, MSSA; experiment: MIC assay, SA101; format: cell-based; settings: Table 8, read-out: MIC S. aureus ATCC 29213
# [13] = test system: Staphylococcus aureus SA161, HA-MRSA, tetracycline-resistant, tet(M); experiment: MIC assay, SA161; format: cell-based; settings: Table 8, read-out: MIC S. aureus MRSA, tetM
# [14] = test system: Escherichia coli EC155, tetracycline-resistant, tet(A); experiment: MIC assay, EC155; format: cell-based; settings: Table 8, read-out: MIC E. coli tetA
# [15] = test system: Escherichia coli EC107, ATCC 25922; experiment: MIC assay, EC107; format: cell-based; settings: ATCC25922, Table 8, read-out: MIC E. coli ATCC 25922
# [16] = test system: E. coli DH10B(pBAD-tetK), expressing tet(K); experiment: MIC against recombinant E. coli expressing tet(K); format: cell-based; settings: for MIC: Escherichia coli
# Source text: as §1
# [17] = test system: E. faecalis clinical isolates; experiment: MIC50, MIC90 and MIC range, panel of clinical isolates (Example 20); format: cell-based; settings: 24 isolates, in µg/mL
# Description: as §2
# (§4) Both values, as well as the MIC range (the lowest and highest MIC value observed for a collection of organisms), were determined for the isolates listed in Table 3.
# [18] = test system: S. pneumoniae clinical isolates; experiment: as above; format: cell-based; settings: 19 isolates, in µg/mL
# Description: as §2, §4
# [19] = test system: S. aureus clinical isolates; experiment: as above; format: cell-based; settings: MRSA, 30 isolates; in µg/mL
# Description: as §2, §4
compound,measurement,setting,value
CN(C)CC(C)(C)CNc1nc(F)c2c(c1O)C(=O)C1=C(O)[C@]3(O)C(=O)C(C(N)=O)=C(O)[C@@H](N(C)C)[C@@H]3C[C@@H]1C2 [Compound 133],MIC,[1],2 µg/mL
same,TnT IC50,[2],0.56 µg/mL
same,"IC50, in vitro transcription/translation system","[2]; E. coli S30 extract, luciferase readout",0.6 µg/mL
same,MIC,"[3]; read-out: MIC, TetM induced",2 µg/mL
same,MIC,"[3]; read-out: MIC, Uninduced",0.5 µg/mL
same,Ratio (TetM induced / Uninduced),[3]; ratio of MICs,4
same,Effect of expression of (tet)M on activity,[3]; result in words,minimally affected
same,MIC,[4],0.5 µg/mL
same,MIC,[5],0.5 µg/mL
same,MIC,[6],≤ 0.25 µg/mL
same,MIC,[7],≤ 8 µg/mL
same,MIC,[8],≤ 1 µg/mL
same,MIC,[9],≤ 4 µg/mL
same,MIC,[10],0.5 µg/mL
same,MIC,[11],1 µg/mL
same,MIC,[12],1 µg/mL
same,MIC,[13],2 µg/mL
same,MIC,[14],8 µg/mL
same,MIC,[15],1 µg/mL
same,MIC,"[16]; read-out: MIC, TetK Induced",1 µg/mL
same,MIC,"[16]; read-out: MIC, Uninduced",2 µg/mL
same,"MIC ratio, TetK induced to uninduced",[16]; ratio of TetK induced to uninduced MIC,0.5
same,Effect of expression of (tet)K on activity,[16]; result in words,unaffected
same,MIC Range,[17],0.25-4
same,MIC Range,[18],<=0.016-0.25
same,MIC Range,[19],0.5-8
